Test: Compatibility of biocides with 300 ppm molecular iodine base composition
Conditions: biocide added at increasing concentrations to 300 ppm molecular iodine base, iodate excess 2; 6 weeks

Which “compatibility with molecular iodine (colour, thiosulfate titratable iodine)” value (shortened to “compatibility with molecular iodine”) does the source give for `CCCO` [Formulation 1-propanol, 1-propanol] here?
The value was “did not reduce thiosulfate titratable iodine”.

With `CC(C)O` [Formulation 2-propanol, 2-propanol] as the molecule, how does the “compatibility with molecular iodine” value read?
Its value is “did not reduce thiosulfate titratable iodine”.

Which “compatibility with molecular iodine” value does the source give for `CCO` [ethanol] here?
Its value is “did not reduce thiosulfate titratable iodine”.

Which “compatibility with molecular iodine” value does the source give for `OO` [hydrogen peroxide] here?
Its value is “did not reduce thiosulfate titratable iodine”.

For `CCCCCCCC(=O)O` [octanoic acid], which “compatibility with molecular iodine” value is on record?
The value was “did not reduce thiosulfate titratable iodine”.

With `CC(=O)OO` [peracetic acid] as the molecule, how does the “compatibility with molecular iodine” value read?
Its value is “did not reduce thiosulfate titratable iodine”.

Test: Compatibility of surface active agents with molecular iodine base composition
Assay type: physicochemical
Conditions: 985 micromolar molecular iodine base with n-propanol, peracetic acid, hydrogen peroxide, iodate, citric acid; 37 degrees centigrade 6 weeks
Experimental: A further objective of this invention was to incorporate surface active agents in the compositions contemplated in this application to enhance the cleaning and wetting properties of said compositions. A series of surface active agents were screened to insure their compatibility with the molecular iodine based composition contemplated in this application. A 985 micromolar concentration of molecular iodine was prepared by dissolving elemental iodine crystals in a sealed glass volumetric flask containing the base composition. […] Samples of the following surface active agents or classes of surface active agents were obtained from various manufacturers and evaluated for compatibility with molecular iodine.

Which “compatibility of surface active agent with molecular iodine composition” value (from here on “compatibility of surface active agent”) does the source give for `CCCCCCCC(=O)O` [capryllic acid] here?
The value was “compatible at all concentrations tested”.

For `CCCCCCCCCCCC(=O)OCC(O)CO` (stereo not shown) [dodecanoic acid 2,3-dihydroxypropyl ester], which “compatibility of surface active agent” value is on record?
The value was “compatible at all concentrations tested”.

Which “compatibility of surface active agent” value does the source give for `CCCCCCCCC(=O)OCC(O)CO` (stereo not shown) [nonanoic acid 2,3-dihydroxypropyl ester] here?
The value was “compatible at all concentrations tested”.

Which “compatibility of surface active agent” value does the source give for “nonylphenoxypolyethyleneoxy ethanol sulfate” here?
Its value is “compatible at all concentrations tested”.
